How the values were obtained:
[1] = human pharmacokinetic study: blood plasma concentration of valdecoxib; format: in vivo
Description: Subjects drank 180 ml water one, two and three hours postdose.

[2] = test system: patients requiring extraction of two ipsilateral impacted third molars; experiment: placebo-controlled single-dose preemptive analgesia study, third molar extraction; format: in vivo, human
Description: Beginning at 30 minutes after closure of surgery, level of pain was assessed every two hours up to 24 hours, except that patients were not awakened for pain assessments. Pain was assessed by the patient on a 0-3 scale and on a chart representing a continuum from “no pain” to “worst pain”. Rescue medication was administered on demand by the patient. At the last scheduled assessment, or immediately prior to administration of rescue medication, the patient was asked to evaluate the effectiveness of the study medication to delay pain. Time to rescue medication (TRM) was analyzed using survival analysis techniques. The median time to event for each treatment group was calculated using the Kaplan-Meier product limit estimator, including the adjustment described by Miller (1981) in Survival Analysis, pp. 74-75. New York: John Wiley & Sons. Ninety five percent (95%) confidence intervals for the median time to event were calculated using the method of Simon & Lee (1982), Cancer Treat. Rep. 66, 37-42. […] Patients who dropped out for reasons other than administration of rescue medication were censored at the time they dropped out of the study.

COX-1 = COX-1 (Homo sapiens, UniProt P23219); details: in vitro; cited from earlier work
physchem = details: 20 °C, thermodynamic from solid
[3] = single preemptive intravenous dose 40 mg

Sequence of COX-1 (P23219 24-599): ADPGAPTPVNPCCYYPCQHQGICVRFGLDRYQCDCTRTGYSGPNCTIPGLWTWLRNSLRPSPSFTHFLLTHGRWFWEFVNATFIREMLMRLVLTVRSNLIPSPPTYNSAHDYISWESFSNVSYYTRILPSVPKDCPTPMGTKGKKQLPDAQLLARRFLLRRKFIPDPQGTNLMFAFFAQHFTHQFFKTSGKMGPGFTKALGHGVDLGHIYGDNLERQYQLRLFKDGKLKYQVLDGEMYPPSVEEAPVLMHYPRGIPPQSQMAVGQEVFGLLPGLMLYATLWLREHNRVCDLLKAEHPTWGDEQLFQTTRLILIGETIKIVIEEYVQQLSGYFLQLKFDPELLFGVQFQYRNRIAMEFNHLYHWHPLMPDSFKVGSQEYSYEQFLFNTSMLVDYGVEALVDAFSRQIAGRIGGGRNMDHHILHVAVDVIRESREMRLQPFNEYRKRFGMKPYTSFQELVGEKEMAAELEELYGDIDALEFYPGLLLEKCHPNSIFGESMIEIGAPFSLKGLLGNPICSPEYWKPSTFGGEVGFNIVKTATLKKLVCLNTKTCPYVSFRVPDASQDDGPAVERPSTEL

SMILES	conversion to valdecoxib after parenteral administration ([1]; human subject, parenteral)	patients rating the study medication as good or excellent ([2]; 40 mg treatment group) [%]	patient's evaluation of effectiveness scores compared with placebo ([2]; each parecoxib treatment group)	proportion of patients taking rescue medication compared with placebo ([2]; parecoxib treatment groups 20, 40, 80 mg)	TRM compared with placebo ([2]; single doses 20 mg, 40 mg and 80 mg)	Patients taking rescue medication ([2]; single preemptive intravenous dose 20 mg) [%]	Median TRM (time to rescue medication) [2, 3] [h]	Patients taking rescue medication [2, 3] [%]	Patients taking rescue medication ([2]; single preemptive intravenous dose 80 mg) [%]	inhibitory activity against COX-1 (COX-1)	solubility thermodynamic (physchem; pH 7.3, aqueous buffer) [mg/mL]	solubility thermodynamic (physchem; pH 7.8, aqueous buffer) [mg/mL]	solubility thermodynamic (physchem; pH 8.2, aqueous buffer) [mg/mL]	time at which maximum blood plasma concentration of valdecoxib was reached ([1]; human, 20 mg IV bolus vs 20 mg valdecoxib oral immediate-release tablet)
CCC(=O)NS(=O)(=O)c1ccc(-c2c(-c3ccccc3)noc2C)cc1 [Parecoxib, parecoxib]	rapidly and completely converted to valdecoxib	92	significantly higher	significantly lower	significantly longer TRM than placebo	78	>24	48	59	weak in vitro inhibitory activity				
CCC(=O)NS(=O)(=O)c1ccc(-c2c(-c3ccccc3)noc2C)cc1 [parecoxib sodium]											1	18	220	earlier
Cc1onc(-c2ccccc2)c1-c1ccc(S(N)(=O)=O)cc1 [valdecoxib]										weak inhibitor				

From US7695736B2, “Reconstitutable parenteral composition” (Pfizer Inc., priority 2001, dated 2010)
